# Reference: patent publication US8697668B2, “Compositions and methods for preventing and treating cancer via modulating UBE1L, ISG215 and/or UBP43” (Trustees of Dartmouth College, priority 2002, dated 2014)
# Where two headings read alike, the source gives them in different places. Where a SMILES comes first, the peptide text is derived from it. [ ]: non-standard residue; d: D form. Nle = CCCC[C@H](N)C(=O)O
# Assays:
# E1 = E1 mRNA expression in NB4-S1 cells; assay type: cell-based; conditions: RA 1 μM
# NB4-S1 APL cells = assay: NBT reduction maturation (differentiation) assay; assay type: cell-based; conditions: 5 days treatment with RA (1 μM)
# Experimental: (§1) The NB4 APL cell line expresses PML/RARα (Lanotte, et al. (1991) Blood 77:1080-1086). NB4-S1 and NB4-R1 are RA-sensitive and RA-resistant clones of NB4 cells, respectively (Nason-Burchanel, et al. (1997) Differentiation 61:321-331). These cells were cultured in RPMI-1640 medium supplemented with 10% FBS (see, Nason-Burchenal et al. (1997) supra).
# NB4 cell differentiation was scored by using the nitroblue tetrazolium (NBT) reduction assay (Nason-Burchenal, et al. (1997) supra; Nason-Burchenal, et al. (1998a) Blood 92:1758-1767; Nason-Burchanel, et al. (1998b) Oncogene 17:1759-1768) Transductants were identified by green fluorescent protein (GFP) coexpression. Apoptosis was scored by using established techniques and Hoechst staining of transductants that co-expressed GFP (Nason-Burchenal, et al. (1998a) supra; Nason-Burchenal, et al. (1998b) supra; Stadheim, et al. (2001) Cancer Res. 61:1533-1540). Digital images were collected using an OLYMPUS 1×70 inverted microscope, a cooled charge-coupled device camera, and a MIRACAL Pro Single Cell Imaging System (OLYMPUS LSR Research, Melville, N.Y.).
# ISG15 [1] = assay: ISG15 expression and conjugation in NB4 cells; assay type: cell-based
# UBE1L [2] = assay: UBE1L mRNA expression, reverse transcription-PCR in NB4 APL cells; assay type: cell-based; conditions: 10 μM RA
# Experimental: as §1
# UBE1L mRNA expression was assessed by a reverse transcription-PCR assay in accordance with established methods (Kakizuka et al. (1991) Cell 68:663-674). The forward primer was 5′-AGGTGGCCAAGAACTTGGTT-3′ (SEQ ID NO:8), and the reverse primer was 5′-CACCACCTGGAAGTCCAACA-3′ (SEQ ID NO:9). The PCR product was visualized by probing with a ^32P-labeled primer. Results were confirmed independently by Northern analysis using a 1.0-kb EcoRI/NcoI-radiolabeled UBE1L probe in accordance with standard techniques (Langenfeld et al. (1997) Proc. Natl. Acad. Sci. USA 94:12070-12074). This probe had limited homology to E1.
# UBE1L [3] = assay: UBE1L immunoblot expression in NB4 cells; assay type: cell-based; conditions: NB4-S1 APL cells, RA 1 μM
# Description: Two rabbit polyclonal antibodies against UBE1L were independently derived (Covance Research Products, Denver, Pa.) using one peptide within the amino terminus (Asp-Cys-Asp-Pro-Arg-Ser-Ile-His-Val-Arg-Glu-Asp-Gly-Ser-Leu-Glu-Ile-Gly-Asp (SEQ ID NO:10)) and a second peptide within the carboxyl terminus (Pro-Gly-Ser-Gln-Asp-Trp-Thr-Ala-Leu-Arg-Glu-Leu-Leu-Lys-Leu-Leu (SEQ ID NO:11)). Specificities of these antisera were confirmed by immunoblot analyses of UBE1L-transfected CHO cells.
# Immunoblot analyses were performed using established techniques (Langenfeld, et al. (1997) Proc. Natl. Acad. Sci. USA 94:12070-12074; Spinella, et al. (1999) J. Biol. Chem. 274:22013-22018). Anti-RARα antibody was provided by and can be purchased from P. Chambon (Institut National de la Sant et de la Recherche Mdicale, Strasbourg, France) to detect PML/RARα (Nason-Burchenal, et al. (1998) Blood 92:1758-1767; Nason-Burchenal, et al. (1998) Oncogene 17:1759-1768). An anti-HA mAb was purchased (Babco, Richmond, Calif.) as was an anti-actin polyclonal antibody, C-11 (Santa Cruz Biotechnology, Santa Cruz, Calif.).
# cyclin D1 [4] = assay: Cyclin D1 immunoblot in H358 cells; assay type: cell-based
# Experimental: (§2) The H358 lung cancer cell line was cultured in RPMI-1640 medium (INVITROGEN Corporation, Carlsbad, Calif.) containing L-glutamine, 10% fetal bovine serum and 1% antibiotic-antimycotic solution (CELLGRO, Herndon, Va.) (Petty, et al. (2004) Clin. Cancer Res. 10:7547-54). Cells were incubated at 37° C. in a humidified incubator with 5% CO2. Bexarotene treatments of HBE and lung cancer cells were accomplished according to known methods (Dragnev, et al. (2007) Clin. Cancer Res. 13:1794-800; Dragnev, et al. (2005) J. Clin. Oncol. 23:8757-64).
# (§3) Cells were lysed with ice-cold radioimmunoprecipitation (RIPA) lysis buffer, using established techniques (Pitha-Rowe, et al. (2004) supra; Pitha-Rowe, et al. (2004) supra; Feng, et al. (2007) supra; Ma, et al. (2005) Cancer Res. 65:6476-83). Lysates were size-fractionated by sodium dodecyl sulphate-polyacrylamide gel electrophoresis (SDS-PAGE) assays before transfer to nitrocellulose membranes (Schleicher & Schuell Bioscience, Inc., Keene, N.H.). The polyclonal antibody recognizing the UBE1L amino terminus of UBE1L was used for immunoblot and immunohistochemical assays. […] Quantification of signal intensities was scored as before (Shah, et al. (2008) supra; Feng, et al. (2007) supra; Ma, et al. (2005) supra). […]
# Ki-67 = Ki-67 immunostaining (proliferation), post- versus pretreatment lung cancer biopsies; assay type: in vivo
# Description: (§4) Paraffin-embedded and formalin-fixed tissues were obtained from an Institutional Review Board-approved proof of principle bexarotene lung cancer trial (Dragnev, et al. (2007) supra). Tissues were examined for cyclin D1 (Petty, et al. (2004) supra; Dragnev, et al. (2007) supra; Dragnev, et al. (2005) supra), UBE1L (Pitha-Rowe, et al. (2004) supra), ISG15 (Andersen, et al. (2006) Br. J. Cancer 94:1465-71), and Ki-(Petty, et al. (2004) supra; Dragnev, et al. (2007) supra; Dragnev, et al. (2005) supra) immunohistochemical expression profiles.
# cyclin D1 [5] = assay: Cyclin D1 immunohistochemical expression, post- versus pretreatment lung cancer biopsies; assay type: in vivo
# Description: as §4
# [6] = system: BEAS-2B human bronchial epithelial cells; assay: Clonal growth assay; assay type: cell-based; conditions: bexarotene treatment, FIG. 2
# Experimental: Human bronchial epithelial cells (BEAS-2B) were cultured in serum-free LHC-9 medium (Biofluids, Rockville, Md.) in accordance with established techniques (Langenfeld, et al. (1997) Proc. Natl. Acad. Sci. USA 94:12070-12074; Boyle, et al. (1999) J. Natl. Cancer Inst. 91:373-379).
# Five μg of MSCVIRES-UBE1L-GFP and an empty vector were independently transfected into the Phoenix Amphotropic packaging cell line (ATCC, Manassas, Va.) using EUGENE 6 (Roche, Indianapolis, Ind.), and the vendor's recommended procedures. Forty-eight hours later, viral supernatants were […] respective transduced BEAS-2B HBE or H358 lung cancer cells with 4 μg/ml POLYBRENE (Sigma). Forty-eight hours later, cells positive for GFP expression were harvested using a FACSTAR Plus (Becton Dickinson, San Jose, Calif.) high speed sorting cytometer. This was repeated one week later to enrich for studied transductants.
# Clonal growth assays (Langenfeld, et al. (1996) Oncogene 13:1983-90) were performed using 5×10^2 BEAS-2B and 1×10^3 H358 cells. These cells were independently engineered to over-express UBE1L or a control vector. […] Two weeks later, visible colonies were fixed and stained with DIFF QUIK solution (Baxtor, McGaw Park, Ill.) and quantified with the Col Count instrument (Oxford Optronix, Oxford, UK).
# [7] = cited from earlier work
# ISG15 [8] = assay: ISG15 immunohistochemical expression, post- versus pretreatment lung cancer biopsies; assay type: in vivo; conditions: post- and pre-bexarotene treatment biopsies of the lung cancer cases
# Description: as §4
# UBE1L [9] = assay: UBE1L immunoblot in BEAS-2B cells; assay type: cell-based, human; conditions: 1 μM, 10 days treatment versus vehicle
# Experimental: as §2, §3
# cyclin D1 [10] = assay: Cyclin D1 immunoblot in BEAS-2B cells; assay type: cell-based, human
# Experimental: as §2, §3
# UBE1L [11] = assay: UBE1L immunohistochemical expression, post- versus pretreatment lung cancer biopsies; assay type: in vivo
# Description: as §4
# [12] = system: ISG15-conjugated cyclin D1; assay: Immunoprecipitation/immunoblot of ISG15-cyclin D1 conjugates in BEAS-2B cells; assay type: cell-based, human; conditions: BEAS-2B cells co-transfected with UBE1L, ISG15 and cyclin D1
# Description: Cells were lysed with ice-cold radioimmunoprecipitation (RIPA) lysis buffer, using established techniques (Pitha-Rowe, et al. (2004) supra; Pitha-Rowe, et al. (2004) supra; Feng, et al. (2007) supra; Ma, et al. (2005) Cancer Res. 65:6476-83). Lysates were size-fractionated by sodium dodecyl sulphate-polyacrylamide gel electrophoresis (SDS-PAGE) assays before transfer to nitrocellulose membranes (Schleicher & Schuell Bioscience, Inc., Keene, N.H.). The polyclonal antibody recognizing the UBE1L amino terminus of UBE1L was used for immunoblot and immunohistochemical assays. Other primary antibodies for immunoblot assays included a rabbit polyclonal antibody recognizing cyclin D1 (M-20) (Santa Cruz Biotechnology, Santa Cruz, Calif.), a murine monoclonal antibody against hemagglutinin (HA)-tagged proteins (Babco, Richmond, Calif.) and a goat polyclonal antibody recognizing actin (Santa Cruz Biotechnology). Anti-mouse and anti-rabbit antisera were purchased (Amersham Biosciences, Piscataway, N.J.) as was anti-goat antisera (Santa Cruz Biotechnology) and these were used as respective secondary antibodies. Membranes used for immunoblot analyses were treated with the MEMCODE reversible stain (Pierce, Rockford, Ill.). […] Quantification of signal intensities was scored as before (Shah, et al. (2008) supra; Feng, et al. (2007) supra; Ma, et al. (2005) supra). […]
# [13] = case with low bexarotene levels
# [14] = lung cancer case with high levels
# [15] = representative lung cancer case with low levels
compound,measurement,setting,value
"CC1=C(/C=C/C(C)=C/C=C/C(C)=C/C(=O)O)C(C)(C)CCC1 [RA, All-trans-retinoic acid]",E1 mRNA,E1,not induced
same,"NBT, %",NB4-S1 APL cells,92%
same,ISG15 expression,ISG15 [1]; RA-sensitive NB4 cells,augments
same,intracellular ISG15 conjugation,ISG15 [1]; retinoid-sensitive NB4 cells,increases
same,UBE1L expression,"UBE1L [2]; RA-resistant NB4-R1 cell line, same time period",not induced
same,UBE1L mRNA induction,"UBE1L [2]; RA-sensitive NB4-S1 cells, reverse transcription-PCR",induction occurred by three hours
same,UBE1L protein expression,UBE1L [3],induced
C=C(c1ccc(C(=O)O)cc1)c1cc2c(cc1C)C(C)(C)CCC2(C)C [Bexarotene],cyclin D1 protein,cyclin D1 [4],repressed
same,"proliferation, Ki-67 immunostaining","Ki-67; case with high bexarotene levels, post-versus pretreatment biopsies",decrease
same,Repression of Ki-67 immunostaining,Ki-67; [13],not observed
same,cyclin D1 expression in post-versus pre-treatment biopsies,cyclin D1 [5]; case with high bexarotene plasma and intratumoral levels,declined
same,cyclin D1 immunohistochemical expression profile,cyclin D1 [5]; [13],not appreciably altered
same,BEAS-2B clonal growth,[6],dose-dependent decline
same,BEAS-2B clonal growth,[6]; listed as bexarotene,Dose-dependent inhibition
same,bexarotene intratumoral level,[7]; [14],0.31 µM
same,bexarotene plasma level,[7]; [14],1.49 µM
same,bexarotene intratumoral level,[7]; [15],0.09 µM
same,bexarotene plasma level,[7]; [15],0.13 µM
same,ISG15 immunohistochemical expression,ISG15 [8],similar
same,UBE1L expression,UBE1L [9],prominently increased
same,cyclin D1 protein,cyclin D1 [10],repressed
same,"odds ratio, association between intratumoral bexarotene concentration and UBE1L increase","UBE1L [11]; 95% asymptotic CI 0.1, 354.9",6
same,UBE1L immunohistochemical expression,UBE1L [11]; case with high bexarotene levels,increase
same,UBE1L immunohistochemical expression profile,UBE1L [11]; [13],not appreciably altered
same,response rate for UBE1L,"UBE1L [11]; five cases examined, 95% CI 1, 72",20%
CCCC[C@@H](C=O)NC(=O)[C@H](CC(C)C)NC(=O)[C@H](CC(C)C)NC(C)=O [ALLN] (Ac-Leu-Leu-[Nle]-aldehyde),ISG15ylated cyclin D1 species,[12],stabilized
